# Patent publication US20060153933A1 (priority 2002, published 2006)
# Several values for one entry are separate records, joined by “and”; a condition that tells them apart may be missing. Identical values can stand only once. Like-named read-outs stand apart in the source and are kept apart here.
# How the values were obtained:
# Type in all cases: in vivo
# [1] = test system: Phytophthora infestans (PHYTIN); details: 1DC
# [2] = test system: Plasmopara viticola (PLASVI)
# [3] = test system: Phytophthora infestans (PHYTIN); assay: whole plant or invertebrate; details: for pest or weed control at 1.85 ppm: read-out: % Disease Control (observed); for pest or weed control at 1.9 ppm: 1.90 ppm alone
# [4] = test system: Plasmopara viticola (PLASVI); assay: whole plant or invertebrate
# [5] = PHYTIN 3DP, applied alone at 1.1 ppm
# [6] = PLASVI 3DP, applied alone at 1.1 ppm
# [7] = Plasmopara viticola, 72 h, read-out: % Disease Control (observed), 3DP, 5.56 ppm alone
# [8] = Phytophthora infestans, 72 h, read-out: % Disease Control (observed), 3DP, 0.60 ppm alone
smiles,measurement,setting,value
"COC(=O)C(C)N(C(=O)Cc1ccccc1)c1c(C)cccc1C (centres unmarked) [Benalaxyl, benalaxyl]",% Disease Control (Observed),[1]; 1.90 ppm alone,8.8%
same,% Disease Control (Observed),[1]; 16.70 ppm alone,12.3%
same,% Disease Control (Observed),"[2]; 1DC, 0.60 ppm alone",24.6%
"CC(C)OC(=O)N[C@H](C(=O)N[C@H](C)c1nc2ccc(F)cc2s1)C(C)C [Benthivalicarb, benthivalicarb]",% Disease Control (Observed),"[3]; 1DP, 0.62 ppm alone",31.6%
same,% Disease Control (Observed),"[4]; 1DP, 0.62 ppm alone",57.9%
same,% Disease Control (Observed),[1]; 0.62 ppm alone,28.1%
"CCNC(=O)NC(=O)/C(C#N)=N/OC [Cymoxanil, cymoxanil]",% Disease Control (Observed),[3]; [5],1.8%
same,% Disease Control (Observed),[4]; [6],17.5%
same,% Disease Control (Observed),[1]; 16.7 ppm alone,49.1%
same,% Disease Control (Observed),"[2]; 1DC, 5.56 ppm alone",10.5%
same,% Disease Control (Observed),"[2]; 1DC, 16.70 ppm alone",35.1%
"COc1ccc(C(=CC(=O)N2CCOCC2)c2ccc(Cl)cc2)cc1OC [Dimethomorph, dimethomorph]",% Disease Control (Observed),"[3]; PHYTIN 3DP, applied alone at 1.4 ppm",3.5%
same,pest or weed control at 1.85 ppm,"[3]; Phytophthora infestans, 72 h",12.3%
same,pest or weed control at 0.62 ppm,"[3]; Phytophthora infestans, 72 h, read-out: % Disease Control (observed), 3DP, 0.62 ppm alone",0%
same,% Disease Control (Observed),"[4]; PLASVI 3DP, applied alone at 0.5 ppm",3.5%
same,% Disease Control (Observed),"[4]; PLASVI 3DP, applied alone at 1.4 ppm",22.8%
same,pest or weed control at 1.85 ppm,"[4]; Plasmopara viticola, 72 h, read-out: % Disease Control (observed), 3DP, 1.85 ppm alone",5.3%
same,pest or weed control at 5.56 ppm,[4]; [7],63.2%
same,% Disease Control (Observed),[1]; 5.56 ppm alone,0.0%
same,% Disease Control (Observed),[1]; 16.70 ppm alone,29.8%
same,% Disease Control (Observed),[1]; 50.00 ppm alone,33.3%
same,% Disease Control (Observed),"[2]; 1DC, 5.56 ppm alone",8.8%
"CC[C@H](CS(=O)(=O)C(C)c1ccc(C#N)cc1)NC(=O)Oc1ccc(F)cc1 (stereo partly drawn) [Formula III, 4-fluorophenyl(1S)-1-({[(1R,S)-(4-cyanophenyl)ethyl]sulfonyl}methyl)-propylcarbamate]",% Disease Control (Observed),"[3]; 4DP, 0.60 ppm alone",15.8%
same,% Disease Control (Observed),"[3]; 4DP, 2.80 ppm alone",34.2%
same,% Disease Control (Observed),"[3]; 4DP, 5.60 ppm alone",21.10%
same,% Disease Control (Observed),"[3]; PHYTIN 2DP, applied alone at 0.4 ppm",5.3%
same,% Disease Control (Observed),"[3]; PHYTIN 2DP, applied alone at 1.1 ppm",15.8%
same,% Disease Control (Observed),"[3]; PHYTIN 2DP, applied alone at 5.56 ppm",12.3%
same,% Disease Control (Observed),"[3]; PHYTIN 3DP, applied alone at 0.62 ppm",3.5%
same,% Disease Control (Observed),[3]; [5],12.3%
same,% Disease Control (Observed),"[3]; PHYTIN 6DP, applied alone at 1.1 ppm",3.5%
same,% Disease Control (Observed),"[3]; PHYTIN 6DP, applied alone at 3.3 ppm",33.3%
same,pest or weed control at 0.6 ppm,"[3]; Phytophthora infestans, 24 h, read-out: % Disease Control (observed), 1DP, 0.60 ppm alone",3.5%
same,pest or weed control at 1.9 ppm,"[3]; Phytophthora infestans, 24 h, read-out: % Disease Control (observed), 1DP",78.6%
same,pest or weed control at 0.62 ppm,"[3]; Phytophthora infestans, 48 h, read-out: % Disease Control (observed), 2DP, 0.62 ppm alone",8.8%
same,pest or weed control at 5.56 ppm,"[3]; Phytophthora infestans, 48 h, read-out: % Disease Control (observed), 2DP, 5.56 ppm alone",12.3%
same,pest or weed control at 0.21 ppm,"[3]; Phytophthora infestans, 72 h, read-out: % Disease Control (observed), 3DP, 0.21 ppm alone",0%
same,pest or weed control at 0.6 ppm,[3]; [8],73.7%
same,pest or weed control at 0.9 ppm,"[3]; Phytophthora infestans, 72 h, read-out: % Disease Control (observed), 3DP, 0.90 ppm alone",1.8%
same,pest or weed control at 2.8 ppm,"[3]; Phytophthora infestans, 72 h, read-out: % Disease Control (observed), 3DP, 2.80 ppm alone",47.4%
same,pest or weed control at 5.56 ppm,"[3]; Phytophthora infestans, 72 h, read-out: % Disease Control (observed), 3DP, 5.56 ppm alone",57.9%
same,pest or weed control at 5.56 ppm,"[3]; Phytophthora infestans, 72 h, read-out: % Disease Control (observed), Table 10, PHYTIN (3DP) as printed, 5.56 ppm alone",31.6%
same,pest or weed control at 1.85 ppm,"[3]; Phytophthora infestans, 96 h",38.6%
same,% Disease Control (Observed),[3]; in vivo,26.3%
same,% Disease Control (Observed),"[4]; 1DP, 0.20 ppm alone",8.8%
same,% Disease Control (Observed),"[4]; 1DP, 0.67 ppm alone",49.1%
same,% Disease Control (Observed),"[4]; 4DP, 1.90 ppm alone",26.30%
same,% Disease Control (Observed),"[4]; PLASVI 2DP, applied alone at 0.4 ppm",8.8%
same,% Disease Control (Observed),"[4]; PLASVI 2DP, applied alone at 1.1 ppm",22.8%
same,% Disease Control (Observed),"[4]; PLASVI 2DP, applied alone at 1.85 ppm",7.0%
same,% Disease Control (Observed),"[4]; PLASVI 2DP, applied alone at 3.3 ppm",42.1%
same,% Disease Control (Observed),"[4]; PLASVI 2DP, applied alone at 5.56 ppm",19.3%
same,% Disease Control (Observed),"[4]; PLASVI 3DP, applied alone at 0.4 ppm",1.8%
same,% Disease Control (Observed),[4]; [6],12.3%
same,% Disease Control (Observed),"[4]; PLASVI 3DP, applied alone at 5.56 ppm",31.6%
same,% Disease Control (Observed),"[4]; PLASVI 6DP, applied alone at 3.3 ppm",12.3%
same,pest or weed control at 0.2 ppm,"[4]; Plasmopara viticola, 24 h, read-out: % Disease Control (observed), 1DP, 0.20 ppm alone",1.8%
same,pest or weed control at 0.21 ppm,"[4]; Plasmopara viticola, 24 h, read-out: % Disease Control (observed), 1DP, 0.21 ppm alone",14%
same,pest or weed control at 0.62 ppm,"[4]; Plasmopara viticola, 24 h, read-out: % Disease Control (observed), 1DP, 0.62 ppm alone",17.5%
same,pest or weed control at 1.85 ppm,"[4]; Plasmopara viticola, 24 h, read-out: % Disease Control (observed), 1DP, 1.85 ppm alone",71.9%
same,pest or weed control at 5.56 ppm,"[4]; Plasmopara viticola, 24 h, read-out: % Disease Control (observed), 1DP, 5.56 ppm alone",78.9%
same,pest or weed control at 1.85 ppm,"[4]; Plasmopara viticola, 24 h, read-out: % Disease Control (observed), 1DP, Table 14, 1.85 ppm alone",24.6%
same,pest or weed control at 5.56 ppm,"[4]; Plasmopara viticola, 24 h, read-out: % Disease Control (observed), 1DP, Table 14, 5.56 ppm alone",78.9%
same,pest or weed control at 0.62 ppm,"[4]; Plasmopara viticola, 48 h, read-out: % Disease Control (observed), 2DP, 0.62 ppm alone",1.8%
same,pest or weed control at 1.85 ppm,"[4]; Plasmopara viticola, 48 h, read-out: % Disease Control (observed), 2DP, 1.85 ppm alone",15.8%
same,pest or weed control at 5.56 ppm,"[4]; Plasmopara viticola, 48 h, read-out: % Disease Control (observed), 2DP, 5.56 ppm alone",56.1%
same,pest or weed control at 0.21 ppm,"[4]; Plasmopara viticola, 72 h, read-out: % Disease Control (observed), 3DP, 0.21 ppm alone",0%
same,pest or weed control at 0.3 ppm,"[4]; Plasmopara viticola, 72 h, read-out: % Disease Control (observed), 3DP, 0.30 ppm alone",0%
same,pest or weed control at 5.56 ppm,[4]; [7],40.4%
same,pest or weed control at 1.85 ppm,"[4]; Plasmopara viticola, 168 h, read-out: % Disease Control (observed), 7DP, 1.85 ppm alone",14%
same,pest or weed control at 5.56 ppm,"[4]; Plasmopara viticola, 168 h, read-out: % Disease Control (observed), 7DP, 5.56 ppm alone",52.6%
same,% Disease Control (Observed),[1]; 0.62 ppm alone,0.0%
same,% Disease Control (Observed),[1]; 0.90 ppm alone,0.0%
same,% Disease Control (Observed),[1]; 1.85 ppm alone,35.1%
same,% Disease Control (Observed),[1]; 1.90 ppm alone,21.1%
same,% Disease Control (Observed),[1]; 5.56 ppm alone,5.3%
same,% Disease Control (Observed),[1]; 8.30 ppm alone,8.8%
same,% Disease Control (Observed),[1]; 16.70 ppm alone,31.6%
same,% Disease Control (Observed),"[2]; 1DC, 0.60 ppm alone",5.3%
same,% Disease Control (Observed),"[2]; 1DC, 0.90 ppm alone",0.0%
same,% Disease Control (Observed),"[2]; 1DC, 1.85 ppm alone",17.5%
same,% Disease Control (Observed),"[2]; 1DC, 2.80 ppm alone",8.8% and 16.0%
same,% Disease Control (Observed),"[2]; 1DC, 5.56 ppm alone",17.5%
same,% Disease Control (Observed),"[2]; 1DC, 16.70 ppm alone",45.6%
"Cc1ccc(C(C)NC(=O)[C@@H](NC(=O)OC(C)C)C(C)C)cc1 (some centres unmarked) [Iprovalicarb, iprovalicarb]",% Disease Control (Observed),"[3]; 3DP, 5.56 ppm alone",1.8%
same,% Disease Control (Observed),"[3]; 3DP, 16.70 ppm alone",33.3%
same,% Disease Control (Observed),"[4]; 3DP, 1.85 ppm alone",8.8%
same,% Disease Control (Observed),"[4]; 3DP, 5.56 ppm alone",26.3%
same,% Disease Control (Observed),"[2]; 1DC, 5.56 ppm alone",40.0%
same,% Disease Control (Observed),"[2]; 1DC, 16.70 ppm alone",50.0%
"COCC(=O)N(c1c(C)cccc1C)[C@H](C)C(=O)OC [Mefenoxam, mefenoxam]",% Disease Control (Observed),"[3]; 1DP, 0.60 ppm alone",12.3%
same,% Disease Control (Observed),"[3]; PHYTIN 2DP, applied alone at 3.7 ppm",12.3%
same,% Disease Control (Observed),"[3]; PHYTIN 2DP, applied alone at 11.1 ppm",17.5%
same,% Disease Control (Observed),"[4]; 1DP, 0.21 ppm alone",33.3%
same,% Disease Control (Observed),"[4]; 1DP, 0.62 ppm alone",82.5%
same,% Disease Control (Observed),"[4]; PLASVI 2DP, applied alone at 11.1 ppm",38.6%
same,% Disease Control (Observed),"[4]; PLASVI 2DP, applied alone at 33.3 ppm",66.7%
same,% Disease Control (Observed),[1]; 1.85 ppm alone,56.1%
same,% Disease Control (Observed),[2]; in vivo,94.7%
"Cc1cccc(C)c1N(C(=O)CCl)C1CCOC1=O (centres unmarked) [Ofurace, ofurace]",pest or weed control at 0.6 ppm,[3]; [8],0%
same,pest or weed control at 1.9 ppm,"[3]; Phytophthora infestans, 72 h, read-out: % Disease Control (observed), 3DP",0%
same,% Disease Control (Observed),[1]; 1.90 ppm alone,12.3%
same,% Disease Control (Observed),[1]; 5.60 ppm alone,61.0%
same,% Disease Control (Observed),"[2]; 1DC, 0.60 ppm alone",21.1%
